From patent US11382929B2, “Compositions and methods to treat disease” (REGENTS OF THE UNIVERSITY OF MINNESOTA, priority 2019, dated 2022) come the findings set out here.

Data set [1] has as its system EMT-6 tumors. Nature of the data set: In vivo EMT-6 tumor model, anti-tumor effect. Set-up: species or system Balb/C mice. As to conditions: 8 mice per group, charge ratios 1, 4, 16 (low, med, high heparin dose) or equivalent heparin alone.
Data set [2] relates to EMT-6. Kind of data set: MTT cytotoxicity in 2D monolayer cell culture. The format is cell-based. To be noted: Mus musculus, EMT6. Here is the method: (§1) Cytotoxicity in 2D Monolayer Cell Culture A mouse breast cancer cell line EMT-6 (ATCC, Manassas, Va.), two human breast cancer cell lines MDA-MB-231(ATCC) and MCF-7(ATCC), and one human glioma cancer cell line T98G(ATCC) were used in standard MTT assays (T. Mosmann, J Immunol Methods 65(1-2) (1983) 55-63) to test the cytotoxicity of PAHM polymers with different molecular weight and concentration after 24 and 48 h of treatment. D ox-HCl was also tested for comparison. All of the four cancer cell lines were incubated in corresponding cell culture media, EMT-6 media (DMEM high glucose, 10% FBS, 100 U/mL penicillin/streptomycin), T98G and MDA-MB-231 media (DMEM low glucose, 10% FBS, 100 U/mL penicillin/streptomycin), MCF-7 media (DMEM low glucose, 10% FBS, insulin, 100 U/mL penicillin/streptomycin), at 37° C., and a humidified atmosphere containing 5% CO2.
(§2) The MTT assay of PAHM polymers and Dox-HCl on EMT-6 cells exemplified the general experimental procedures. EMT-6 cells were seeded into 96-well plates at 5000 cells/well and cultured for 20 h in EMT-6 media at 5% CO2 and 37° C. Afterwards polymers of various molecular weight and concentrations were added to the cells and cultured for 24 h or 48 h. MTT in PBS (5 mg/mL, 20 μL) was then added to each well, reaching a final concentration of 0.5 mg/mL. After 4 h, unreacted MTT was removed by aspiration. The formazan crystals were dissolved in 150 μL of DMSO, and the absorbance was measured at 570 nm using a Bio-Tek Synergy HT plate reader. Cell viability was calculated by [absorbance of cells exposed to polymers]/[absorbance of cells cultured without polymers] in percentage. Cell images were captured before MTT was added using an Olympus IX70 […] microscope under polarized light.

Data set [3] relates to T98G. Nature of the data set: MTT cytotoxicity in 2D monolayer cell culture. The data set is classed as cell-based. As to conditions: Homo sapiens, 24 h treatment. Here is the method:
as §1, §2

Data set [4] concerns AsPC-1 cells. Kind of data set: PAHM+Dox cytotoxicity assay (MTT). The format is cell-based, human. As to conditions: AsPC-1, PAHM and Dox used in combination. Here is the method:
AsPC-1 or EMT6 cells were plated at 5000 cells/well (in 100 μL phenol red free medium) in 96-well plates. After culturing overnight (˜20 h), the medium was removed, and 100 μL medium containing various concentrations of PAHM and/or Dox was added to the cells. AsPC-1 cells were exposed to 1-100 μg/mL PAHM, 1-100 μg/mL Dox, or combinations of PAHM and Dox at a 1:1 ratio. EMT6 cells were exposed to 1-100 μg/mL PAHM, 0.02-2 μg/mL Dox, or combinations of PAHM and Dox at a 50:1 ratio. After 24 h exposure, the PAHM and Dox solutions were removed and 100 μL phenol red free medium was added to the cells. Cell viability was measured using an MTT assay. To each well, 10 μL MTT solution (12 mM in PBS) was added. After 4 h, 85 μL was removed from each well and formazan was solubilized in 100 μL dimethyl sulfoxide (DMSO). Absorbance was measured at 540 nm using a plate reader (BioTek™ Cytation™ 3 Cell Imaging Multi-Mode Reader controlled by Gen5™ All-In-One Microplate Reader Software). Data was analyzed in Microsoft Excel and Combination Indices and Dose Reduction Indices were calculated using CompuSyn (ComboSyn, Inc.)

Data set [5] relates to erythrocytes (RBC). Nature of the data set: Hemolysis. The format is cell-based, mouse. To be noted: complex of the anionic polymer with PAHM, data not shown.
Data set [6] in a line: Particle size of complexes by dynamic light scattering. The format is physicochemical. To be noted: complex of the anionic polymer with PAHM. Here is the method:
Heparin (sodium salt) was mixed with PAHM in 20 mM HEPES buffer (pH 7.4) and incubated for 30 minutes at room temperature. The charge ratio of heparin and PAHM was adjusted based on the assumption that one repeating unit of PAHM (Mw 325.88) bears 1 mole of positive charge (approximately the same number of primary amino groups) and that one repeating unit of heparin (Mw 1471) carries 8 moles of negative charges (approximately the number of carboxylate and sulfate groups combined). The final PAHM concentration was kept constant as 0.1 mg/mL. To determine the average particle size of the nano-complexes, the heparin/PAHM mixtures were diluted 20 times to a final volume of 2 mL in HEPES buffer. The average hydrodynamic diameter (or particle size) in HEPES buffer (20 mM) at 25° C. were determined using a ZetaPlus Particle Analyzer (Brookhaven Instruments Corporation, Holtsville, N.Y.; 27 mW laser; 658 nm incident beam, 90° scattering angle). Nano-complexes with heparin/PAHM charge ratios ranging from 1 to 32 were prepared as described above and measured by DLS.

Entries after “also recorded” stand apart in the source; their conditions may differ.

For heparin, the “tumor growth (tumor volume and weight)” value in data set [1] was “modest but insignificant effect on tumor growth”.
Broadly, the IC50 is the midpoint of a concentration-inhibition curve. On to `COc1cccc2c1C(=O)c1c(O)c3c(c(O)c1C2=O)C[C@@](O)(C(=O)CO)C[C@@H]3O[C@H]1C[C@H](N)[C@H](O)[C@H](C)O1` [Dox, doxorubicin], for which the IC50 in data set [2] (EMT-6, 24 h treatment) is 10 to 15 µg/mL; in data set [2] (EMT-6, 48 h) it was 5 µg/mL; in data set [3], over 40 µg/mL. Moreover, the “Dose Reduction Index (DRI)” value in data set [4] is “much higher; also recorded: All but one DRI values are above 1”.
For the compound hyaluronic acid [HA], in data set [5], the “hemolytic activity of PAHM in complexed form” value was “reduced, sometimes abolished”. For the same compound, the “particles formed with PAHM (size)” value in data set [6] is “nano to micro scale”.
